# Laboratory results: paper PMC5987162 (Biochimica et biophysica acta, 2018)
# Read-outs that look alike come from different tables or passages of the source.
# Key:
# [1] = system: hippocampal transcriptome; assay: RNA-Seq of hippocampus after acute THC versus vehicle; format: in vivo, mouse; details: for number of transcripts differentially expressed in the HIPP: 2 hours, 5% FDR
# [2] = system: CD1 female mouse brain lipidome; assay: Targeted brain lipidomics; format: in vivo; details: for magnitude class of change in PGE2 and PGF2α, HIPP: p < 0.05
# spatial working memory = details: male C57 mice, 3 mg/kg, tested 30 minutes later; cited from earlier work
# novel object recognition = details: 3 mg/kg THC, 24 hours after dosing; cited from earlier work
# gene expression = details: microarray, out of 24,500 possible genes, acute THC; cited from earlier work
# [3] = PND 50, 2 hours after 3 mg/kg THC i.p.
# [4] = adult, 2 hours after 3 mg/kg THC i.p.
# [5] = PND 35, 2 hours after 3 mg/kg THC i.p.
# [6] = adult, THC vs vehicle, significant
compound,measurement,setting,value
11-OH-THC,rank of HIPP levels relative to other brain regions,[3],highest
same,rank of HIPP levels relative to other brain regions,[4],5th
"CCCCCc1cc(O)c2c(c1)OC(C)(C)[C@@H]1CCC(C)=C[C@@H]21 [THC, Δ^9-tetrahydrocannabinol]",effect on FKBP5 message,"[1]; HIPP of both age groups, 3 mg/kg, larger magnitude in adult",upregulated
same,effect on Cdkn1a transcript,[1]; HIPP of mice from both age groups,upregulated
same,number of genes affected in the same direction regardless of age,"[1]; HIPP, PND 35 and adult",31
same,number of shared transcripts significantly downregulated,"[1]; HIPP, PND 35 and adult",11
same,number of transcripts downregulated in the HIPP,[1]; PND 35,48
same,number of transcripts upregulated in the HIPP,[1]; PND 35,41
same,number of transcripts differentially expressed in the HIPP,"[1]; PND 35, 3 mg/kg THC",89
same,log2 fold change of Plekhf1 (largest upregulation),[1]; PND 35 HIPP,0.84
same,log2 fold change of kdr (most robust downregulation),[1]; PND 35 HIPP,−0.73
same,number of transcript changes unique to this age group,[1]; PND 35 HIPP,58
same,number of uniquely changed transcripts downregulated,[1]; PND 35 HIPP,37
same,number of decreases in transcript expression in the HIPP,[1]; adult,80
same,number of increases in transcript expression in the HIPP,[1]; adult,109
same,log2 fold change of Plekhf1 (largest upregulation),[1]; adult HIPP,1.36
same,log2 fold change of cldn5 (most robust downregulation),[1]; adult HIPP,−0.80
same,number of transcript changes unique to this age group,[1]; adult HIPP,158
same,number of unique transcript changes that were decreases,[1]; adult HIPP,69
same,number of unique transcript changes that were increases,[1]; adult HIPP,89
same,"effect on mRNA encoding the receptor for VEGF, Kdr",[1]; adult and PND 35 HIPP,significantly lowered
same,number of transcripts differentially expressed in the HIPP,"[1]; adult, 3 mg/kg THC",189
same,brain area with highest levels,[5],HIPP
same,brain area with highest levels,[3],HIPP
same,brain area with highest levels,[4],HIPP
same,change in 2-AG in HYP,[2]; PND 35,decrease
same,change in N-oleoyl glycine in HYP,[2]; PND 35,increase
same,effect on AEA levels,[2]; PND 35,unaffected
same,number of brain areas with reduced 2-AG levels,[2]; PND 35,2
same,"number of decreases in lipid concentration, all 8 brain areas",[2]; PND 35,10
same,"number of increases in lipid concentration, all 8 brain areas",[2]; PND 35,23
same,number of lipids decreased in HIPP,[2]; PND 35,1
same,number of lipids increased in HIPP,[2]; PND 35,6
same,magnitude of change of PGE2 in the HIPP (THC mean divided by vehicle mean),"[2]; PND 35, 3 mg/kg i.p., 2 hours",1.13
same,"magnitude class of change in PGE2 and PGF2α, HIPP","[2]; PND 35, THC vs vehicle",1 up arrow
same,"magnitude class of change in A-Taur, THAL","[2]; PND 35, THC vs vehicle, significant",1 up arrow
same,number of significant changes in lipid concentrations across all 8 brain areas,"[2]; PND 35, out of 656 possible changes",33
same,average level of PGE2 in the HIPP,"[2]; PND 35 THC mice, 3 mg/kg i.p., 2 hours",6.68×10^−10 moles per gram
same,change in levels of PGE2 and PGF2α in the HIPP,[2]; PND 35 mouse,increase
same,change in AEA and its structural analogs the NAEs in STR,[2]; PND 50,significantly increased
same,change in PGF2α in HYP (only change in that region),[2]; PND 50,increase
same,number of brain regions with reduced 2-AG levels,[2]; PND 50,4
same,number of brain regions with reduced AEA levels,[2]; PND 50,2
same,"number of decreases in lipid concentration, all 8 brain areas",[2]; PND 50,28
same,"number of increases in lipid concentration, all 8 brain areas",[2]; PND 50,30
same,number of lipids decreased in CER,[2]; PND 50,8
same,number of lipids increased in CER,[2]; PND 50,5
same,"number of lipids significantly modified, all 8 brain areas",[2]; PND 50,58
same,change in levels of PGE2 and PGF2α in the HIPP,[2]; PND 50 mouse,no change
same,change in NAEs in all brain areas except the STR and CTX,[2]; adult,significantly decreased
same,change in levels of PGE2 and PGF2α in the HIPP,[2]; adult,decrease
same,number of brain regions with reduced 2-AG levels,[2]; adult,4
same,number of brain regions with reduced AEA levels,[2]; adult,6
same,number of changes in lipid levels in CER (all decreases),[2]; adult,14
same,"number of decreases in lipid concentration, all 8 brain regions",[2]; adult,99
same,"number of increases in lipid concentration, all 8 brain regions",[2]; adult,17
same,number of lipids affected in STR,[2]; adult,3
same,number of lipids altered in STEM,[2]; adult,28
same,number of lipids changing in concentration across the 8 brain regions,[2]; adult,116
same,number of lipids decreased in STEM,[2]; adult,24
same,number of lipids decreased in STR,[2]; adult,2
same,number of lipids increased in STEM,[2]; adult,4
same,number of lipids increased in STR,[2]; adult,1
same,mean level of AEA in the HIPP,"[2]; adult THC mice, 3 mg/kg i.p., 2 hours",4.76×10^−11 moles per gram
same,"AEA in the HIPP, THC mean divided by vehicle mean","[2]; adult, 3 mg/kg i.p., 2 hours",0.87
same,fold decrease of AEA in the HIPP (reciprocal of THC/vehicle),"[2]; adult, 3 mg/kg i.p., 2 hours",1.15
same,"magnitude class of change in 2-OG, MID","[2]; adult, THC vs vehicle",2 down arrows
same,"magnitude class of change in PGE2 and PGF2α, HIPP","[2]; adult, THC vs vehicle",1 down arrow
same,"magnitude class of change in AEA, THAL",[2]; [6],1 down arrow
same,"magnitude class of change in SEA, THAL",[2]; [6],3 down arrows
same,"magnitude class of change in A-Taur, THAL","[2]; adult, THC vs vehicle, trending (p < 0.1)",1 up arrow
same,"magnitude class of change in 2-AG, MID","[2]; all 3 age groups, THC vs vehicle",1 down arrow
same,effect on spatial working memory in the Morris water maze,spatial working memory,significantly disrupted spatial working memory
same,effect on novel object recognition,novel object recognition,impaired
same,number of genes with altered expression,gene expression,28
(±)-11-nor-9-carboxyTHC,rank of HIPP levels relative to other brain regions,[5],highest
